Data as given in ChEMBL document CHEMBL1138727 (Bioorg Med Chem Lett, 2004).
pIC50: −log10 of the molar value. Each block holds one compound with its values, some of them ahead of it.

Tests used:
[1] = target: Serine/threonine-protein kinase ATR (Homo sapiens, UniProt Q13535); test: Inhibition of Ataxia telangiectasia related protein ATR kinase
[2] = target: Serine-protein kinase ATM (Homo sapiens, UniProt Q13315); test: Inhibition of Mutated in ataxia telangiectasia protein ATM kinase
[3] = target: Serine/threonine-protein kinase mTOR (Homo sapiens, UniProt P42345); test: Inhibition of Mammalian target of Rapamycin mTOR
[4] = target: Phosphatidylinositol 4,5-bisphosphate 3-kinase catalytic subunit alpha isoform (Homo sapiens, UniProt P42336); test: Inhibition of Phosphatidylinositol 3-kinase p110 alpha subunit
[5] = target: T1, DNA-dependent protein kinase catalytic subunit (Homo sapiens, UniProt P78527); test: Inhibitory activity against DNA-dependent protein kinase (DNA-PK) at 0.5 uM
[6] = target: T1, DNA-dependent protein kinase catalytic subunit; test: Inhibitory activity against DNA-dependent protein kinase (DNA-PK)

Chain of Serine/threonine-protein kinase ATR (Q13535 whole entry): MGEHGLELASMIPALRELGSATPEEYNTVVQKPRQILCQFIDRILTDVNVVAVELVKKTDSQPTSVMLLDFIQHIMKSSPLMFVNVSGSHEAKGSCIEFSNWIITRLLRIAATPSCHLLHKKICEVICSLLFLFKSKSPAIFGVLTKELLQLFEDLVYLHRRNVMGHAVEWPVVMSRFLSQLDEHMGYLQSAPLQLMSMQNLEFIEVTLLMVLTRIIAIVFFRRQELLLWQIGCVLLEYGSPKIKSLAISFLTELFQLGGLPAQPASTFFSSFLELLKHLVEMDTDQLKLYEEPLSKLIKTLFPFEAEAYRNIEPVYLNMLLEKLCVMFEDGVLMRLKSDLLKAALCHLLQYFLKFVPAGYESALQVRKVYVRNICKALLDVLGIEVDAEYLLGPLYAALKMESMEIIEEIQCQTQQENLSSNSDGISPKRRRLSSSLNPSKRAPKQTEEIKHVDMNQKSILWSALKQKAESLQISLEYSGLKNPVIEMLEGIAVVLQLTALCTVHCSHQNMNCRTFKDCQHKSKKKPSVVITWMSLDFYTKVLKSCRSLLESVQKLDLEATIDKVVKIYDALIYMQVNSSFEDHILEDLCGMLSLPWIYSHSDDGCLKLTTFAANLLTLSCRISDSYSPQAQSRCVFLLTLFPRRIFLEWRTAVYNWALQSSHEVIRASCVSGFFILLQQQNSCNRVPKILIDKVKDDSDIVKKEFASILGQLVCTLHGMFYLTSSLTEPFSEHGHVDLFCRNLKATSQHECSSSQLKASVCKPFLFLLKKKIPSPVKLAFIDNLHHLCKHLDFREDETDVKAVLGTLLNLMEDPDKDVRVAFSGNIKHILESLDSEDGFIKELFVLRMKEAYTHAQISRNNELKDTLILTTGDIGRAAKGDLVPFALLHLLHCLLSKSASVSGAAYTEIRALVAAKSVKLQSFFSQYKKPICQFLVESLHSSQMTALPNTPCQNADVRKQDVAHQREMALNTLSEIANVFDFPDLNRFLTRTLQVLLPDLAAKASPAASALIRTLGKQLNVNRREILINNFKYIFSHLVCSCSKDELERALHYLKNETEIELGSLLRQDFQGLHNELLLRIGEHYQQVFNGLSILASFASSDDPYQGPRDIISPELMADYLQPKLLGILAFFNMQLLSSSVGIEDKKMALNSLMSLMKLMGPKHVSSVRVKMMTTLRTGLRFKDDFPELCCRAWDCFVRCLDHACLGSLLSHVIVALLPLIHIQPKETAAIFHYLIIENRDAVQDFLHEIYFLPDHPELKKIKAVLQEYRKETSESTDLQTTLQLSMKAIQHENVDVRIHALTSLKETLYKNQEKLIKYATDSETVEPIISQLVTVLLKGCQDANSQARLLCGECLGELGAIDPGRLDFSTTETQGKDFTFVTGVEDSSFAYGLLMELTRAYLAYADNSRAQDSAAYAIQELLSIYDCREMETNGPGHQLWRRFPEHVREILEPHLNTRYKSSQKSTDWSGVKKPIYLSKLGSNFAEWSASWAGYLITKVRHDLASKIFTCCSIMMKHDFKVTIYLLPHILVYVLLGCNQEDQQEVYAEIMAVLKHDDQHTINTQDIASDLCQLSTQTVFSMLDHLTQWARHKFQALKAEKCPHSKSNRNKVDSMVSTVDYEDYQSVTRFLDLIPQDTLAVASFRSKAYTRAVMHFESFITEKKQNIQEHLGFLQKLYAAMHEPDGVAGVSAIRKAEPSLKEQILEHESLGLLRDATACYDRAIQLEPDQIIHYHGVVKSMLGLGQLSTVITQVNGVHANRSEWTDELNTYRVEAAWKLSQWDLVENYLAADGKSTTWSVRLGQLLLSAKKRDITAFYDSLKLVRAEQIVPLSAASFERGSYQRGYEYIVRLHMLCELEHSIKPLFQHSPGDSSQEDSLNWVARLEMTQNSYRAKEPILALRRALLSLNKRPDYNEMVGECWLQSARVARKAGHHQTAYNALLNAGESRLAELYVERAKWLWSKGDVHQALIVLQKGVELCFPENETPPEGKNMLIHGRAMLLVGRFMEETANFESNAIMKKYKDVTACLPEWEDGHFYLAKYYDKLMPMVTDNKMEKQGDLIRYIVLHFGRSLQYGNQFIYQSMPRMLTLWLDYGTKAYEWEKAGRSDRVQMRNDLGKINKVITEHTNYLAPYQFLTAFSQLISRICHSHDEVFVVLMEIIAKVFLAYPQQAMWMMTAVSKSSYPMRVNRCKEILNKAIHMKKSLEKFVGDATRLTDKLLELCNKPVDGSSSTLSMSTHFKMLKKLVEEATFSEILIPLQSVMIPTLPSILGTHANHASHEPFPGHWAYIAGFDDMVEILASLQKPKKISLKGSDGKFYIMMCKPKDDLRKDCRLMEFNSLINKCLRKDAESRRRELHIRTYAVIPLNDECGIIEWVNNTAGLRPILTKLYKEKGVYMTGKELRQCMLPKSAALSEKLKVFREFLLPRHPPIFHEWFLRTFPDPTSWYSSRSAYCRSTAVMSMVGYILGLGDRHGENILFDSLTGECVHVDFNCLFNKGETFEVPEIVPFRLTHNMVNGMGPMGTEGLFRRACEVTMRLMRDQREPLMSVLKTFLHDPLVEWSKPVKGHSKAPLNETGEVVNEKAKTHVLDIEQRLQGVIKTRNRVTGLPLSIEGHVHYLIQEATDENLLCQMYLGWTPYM
Chain of Phosphatidylinositol 4,5-bisphosphate 3-kinase catalytic subunit alpha isoform (P42336 whole entry, canonical isoform): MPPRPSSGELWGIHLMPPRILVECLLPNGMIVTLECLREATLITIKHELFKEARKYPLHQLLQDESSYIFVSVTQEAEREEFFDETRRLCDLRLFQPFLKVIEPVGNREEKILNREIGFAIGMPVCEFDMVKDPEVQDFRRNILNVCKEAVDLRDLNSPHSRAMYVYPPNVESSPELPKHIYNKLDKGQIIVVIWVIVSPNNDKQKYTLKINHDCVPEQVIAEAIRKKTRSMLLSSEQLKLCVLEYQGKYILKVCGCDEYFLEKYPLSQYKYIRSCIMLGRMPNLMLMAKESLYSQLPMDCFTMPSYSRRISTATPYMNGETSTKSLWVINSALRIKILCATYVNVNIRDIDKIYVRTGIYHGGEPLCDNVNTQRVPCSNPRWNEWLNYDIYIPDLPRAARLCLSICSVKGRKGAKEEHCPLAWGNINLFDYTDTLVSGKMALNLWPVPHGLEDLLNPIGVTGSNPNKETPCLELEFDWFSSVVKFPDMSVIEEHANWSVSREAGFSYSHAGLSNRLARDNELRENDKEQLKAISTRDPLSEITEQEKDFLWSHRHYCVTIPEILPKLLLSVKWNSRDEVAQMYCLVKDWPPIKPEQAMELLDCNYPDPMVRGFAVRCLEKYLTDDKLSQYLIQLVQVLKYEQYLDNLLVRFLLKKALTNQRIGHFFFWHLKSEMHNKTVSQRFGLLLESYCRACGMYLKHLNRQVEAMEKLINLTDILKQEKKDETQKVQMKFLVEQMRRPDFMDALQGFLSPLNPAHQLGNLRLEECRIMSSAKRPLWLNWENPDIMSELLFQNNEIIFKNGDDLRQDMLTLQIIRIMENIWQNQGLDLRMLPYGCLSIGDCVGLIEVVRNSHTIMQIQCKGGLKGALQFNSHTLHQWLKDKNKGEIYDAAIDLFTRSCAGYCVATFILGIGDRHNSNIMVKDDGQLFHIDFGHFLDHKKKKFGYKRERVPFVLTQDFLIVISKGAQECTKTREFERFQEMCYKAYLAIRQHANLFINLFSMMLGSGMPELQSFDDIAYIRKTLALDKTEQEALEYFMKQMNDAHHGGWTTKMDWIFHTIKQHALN

- pIC50 [5]: 7.40
SMILES: O=c1cc(N2CCOCC2)oc2c(-c3cccc4c3oc3ccccc34)cccc12

- pIC50 [5]: 6.10
SMILES: CC(=O)c1ccc(-c2cccc3c(=O)cc(N4CCOCC4)oc23)s1

- pIC50 [5]: 6.52
SMILES: O=c1cc(N2CCOCC2)oc2c(-c3ccsc3)cccc12

- pIC50 [5]: 6.05
SMILES: COc1ccc(-c2cccc3c(=O)cc(N4CCOCC4)oc23)cc1

- pIC50 [6]: 5.92
- pIC50 [3]: 5.60
SMILES: O=c1cc(N2CCOCC2)oc2c(-c3ccccc3)cccc12 [LY-294002]
- pIC50 [1]: < 4.00
- pIC50 [2]: < 4.00

Continued, compound first:

SMILES: O=c1cc(N2CCOCC2)oc2c1ccc1ccccc12
- pIC50 [1]: < 4.00
- pIC50 [2]: < 4.00
- pIC50 [3]: 5.19
- pIC50 [4]: 4.89

SMILES: O=c1cc(N2CCOCC2)oc2c(-c3cccc4c3sc3ccccc34)cccc12
- pIC50 [1]: < 4.00
- pIC50 [6]: 7.85
- pIC50 [2]: < 4.00
- pIC50 [3]: 5.77
- pIC50 [4]: 5.30
- pIC50 [5]: 7.70

SMILES: O=c1cc(N2CCOCC2)oc2c(-c3ccc(CO)cc3)cccc12
- pIC50 [5]: 6.22

SMILES: O=c1cc(N2CCOCC2)oc2c(-c3cc4ccccc4s3)cccc12
- pIC50 [5]: 6.10

SMILES: O=c1cc(N2CCOCC2)oc2c(-c3cccs3)cccc12
- pIC50 [5]: 6.52

SMILES: O=c1cc(N2CCOCC2)oc2ccccc12
- pIC50 [5]: 5.89

SMILES: CC1CN(c2cc(=O)c3ccc4ccccc4c3o2)CCO1 (stereo not drawn)
- pIC50 [5]: 6.72
